These results are taken from article PMC5729604, “Dual inhibitors of hepatitis C virus and hepatocellular carcinoma: design, synthesis and docking studies” (Future Science OA, 2017).

Each structure is given as a SMILES string.

One series can be described thus: In vitro hemolytic assay. The class given is cell-based. As to conditions: 2% erythrocyte suspension (washed red blood cells); 2% erythrocyte suspension, 3 μl of 1 mg/ml compound in DMF per 240 μl well, 37°C 30 min, absorbance 405 nm; <5% considered nontoxic. The procedure: Compounds 5a-x and 6a-h were subjected to the in vitro hemolytic assay to identify those which cause hemolysis to red blood cells (RBCs). Consequently, these compounds would be toxic in vivo so they were excluded from further biological screening.
Blood samples (5 ml) were freshly collected into heparinized tubes and were centrifuged (1000 r.p.m. for 20 min) at room temperature. The plasma and buffy coat were removed by Pasteur pipette, and the collected erythrocytes were washed three-times using isotonic buffer solution (0.9% sodium chloride [Sigma-Aldrich, MO, USA]) by centrifugation (2500 r.p.m. for 10 min). A two percent erythrocyte suspension was prepared to be used in the assay.
A 1 mg/ml stock solution of each compound was prepared in DMF (Sigma-Aldrich). Compound wells were prepared by adding 3 μl of the compound solution to 117 μl isotonic buffer solution and 120 μl erythrocyte suspension. Compounds color blank wells were prepared by adding 3 μl compound to 237 μl isotonic buffer solution. Solvent (DMF) wells were prepared by adding 3 μl DMF to 117 μl isotonic buffer solution and 120 μl erythrocyte suspension. Positive control wells (representing 100% hemolysis) were prepared by adding 120 μl erythrocyte suspension to 120 μl distilled water, while negative control wells (representing 0% hemolysis) were prepared by adding 120 μl erythrocyte suspension to 120 μl isotonic buffer solution. Finally, blank wells contained only 240 μl isotonic buffer solution. Each set of samples was pipetted in triplicate. The microtiter plate was then shaken well on bench, incubated at 37°C for 30 min then centrifuged (2000 rpm for 5 min) at room temperature.
A fraction of the supernatant layer (150 μl) of each well was transferred to another 96-well microtiter plate. Erythrocyte hemolysis was determined by reading the absorbance (A) of liberated hemoglobin at 405 nm in the supernatant fraction compared with the 100% hemolysis of erythrocyte. The average value was calculated from triplicate assay: [drawing 2]

Series [1] has as its system human peripheral blood mononuclear cells (PBMCs). It is filed as cell-based. As to conditions: 72 h. The procedure: The safe compounds on RBCs (5a-g, 5i-l, 5p-r, 5v-w, 6b-g) were subjected to the in vitro cytotoxicity assay on human peripheral blood mononuclear cells (PBMCs). Viability of cells was measured using neutral red uptake assay as described by Borenfreund and Puerner to determine the concentrations of each compound that were not cytotoxic. The results were interpreted to calculate both the lethal concentration that kills 50% of cells (LD50) and the maximum safe concentration that causes 100% viability (LD0) of each compound using GraphPad InStat 3.0 software (Figure 6 & Supplementary Table 3).
The PBMCs were isolated by density gradient centrifugation technique as described by Boyum. Blood samples were freshly collected into heparinized or ethylenediaminetetraacetic acid sterile tubes. Blood was diluted using equal volume of RPMI-1640 medium containing 25 mM HEPES and then layered over equal volume of Ficoll-Pague™ Plus (Fisher BioReagents™ Lymphocyte Separation Medium-LSM, PA, USA) and centrifuged (2000 r.p.m. for 30 min at acceleration and deceleration speeds zero & zero) at room temperature. The buffy mononuclear cell layer was collected using sterile Pasteur pipette into 50 ml sterile Falcon tube and washed twice in phosphate-buffered saline (Sigma-Aldrich) using centrifugation (1650 r.p.m. for 5 min). The isolated PBMCs viability was determined by hemocytometer count using the trypan blue exclusion method. The PBMCs were resuspended at 1 × 10^6 cells/ml in RPMI-1640 medium containing 25 mM HEPES supplemented with 10% heat-inactivated FBS. The appropriate number of cells was chosen to be 1 × 10^5 cells/well (100 μl of the prepared suspension).
A 2 mg/ml stock solution of each compound was prepared in DMF and filtered using a 0.2 μM syringe filter. The desired concentrations (20, 10, 5, 2.5 and 1.25 μg/ml) were prepared using serial dilution in a 96-well plate. Compound wells were prepared by adding 100 μl of the previously prepared concentrations to a suspension of 1 × 10^5 PBMCs in 100 μl culture media. Parallel concentrations of the solvent were prepared to be used as controls. Control wells were prepared by adding 100 μl culture media to a suspension of 1 × 10^5 PBMCs in 100 μl culture media. Blank wells contained 200 μl of culture media only (without cells or compound solution). Each set of samples was pipetted in duplicate. The plate was then gently shaken then incubated at 37°C, 5% CO2 for 72 h.
After incubation, neutral red assay was performed as described previously, and surviving cell fraction was calculated according to the previously mentioned equation. Also, the results were interpreted to calculate both the lethal concentration that kills 50% of cells (LD50) and the maximum safe concentration that cause 100% viability (LD0) of each compound using GraphPad InStat 3.0 software.

On to `CC(=NN=C1SC(=Cc2cn(-c3ccccc3)nc2-c2ccccc2)C(=O)N1c1ccccc1)c1cc2ccccc2o1` [Compound 5a, 2-[1-(Benzofuran-2-yl)ethylidenehydrazono]-5-[(1,3-Diphenyl-1H-pyrazol-4-yl)methylene]-3-phenylthiazolidin-4-one], for which the hemolysis at 30 min, 12.5 µg/ml in the series “In vitro hemolytic assay” was determined as 3.27%. In addition, in series [1], the “(LD0) PBMCs” value amounted to 11.17 µg/mL, the LD0 was 11.17 µg/mL and the LD50 came to 13.99 µg/mL.
As for `CC(=NN=C1SC(=Cc2cn(-c3ccccc3)nc2-c2ccc(Cl)cc2)C(=O)N1c1ccccc1)c1cc2ccccc2o1` [Compound 5b, 2-[1-(Benzofuran-2-yl)ethylidenehydrazono]-5-{[3-(4-chlorophenyl)-1-phenyl-1H-pyrazol-4-yl]methylene}-3-phenylthiazolidin-4-one], in “In vitro hemolytic assay”, the hemolysis at 30 min, 12.5 µg/ml came out at 4.22%. Further, in series [1], the “(LD0) PBMCs” value is 5.83 µg/mL, the LD0 came out at 5.83 µg/mL and the LD50 is 92.27 µg/mL.
For `COc1ccc(-c2nn(-c3ccccc3)cc2C=C2SC(=NN=C(C)c3cc4ccccc4o3)N(c3ccccc3)C2=O)cc1` [Compound 5c, 2-[1-(Benzofuran-2-yl)ethylidenehydrazono]-5-{[3-(4-methoxyphenyl)-1-phenyl-1H-pyrazol-4-yl]methylene}-3-phenylthiazolidin-4-one], the hemolysis at 30 min, 12.5 µg/ml in the series “In vitro hemolytic assay” is 1.65%. In series [1], the “(LD0) PBMCs” value was 32.45 µg/mL, the LD0 stood at 32.45 µg/mL and the LD50 worked out at 139.19 µg/mL.
In the case of `CC(=NN=C1SC(=Cc2cn(-c3ccccc3)nc2-c2ccccc2)C(=O)N1c1ccc(Cl)cc1)c1cc2ccccc2o1` [Compound 5d, 2-[1-(Benzofuran-2-yl)ethylidenehydrazono]-5-[(1,3-Diphenyl-1H-pyrazol-4-yl)methylene]-3-(4-chlorophenyl)thiazolidin-4-one], the hemolysis at 30 min, 12.5 µg/ml in “In vitro hemolytic assay” was found to be 1.05%. Moreover, in series [1], the “(LD0) PBMCs” value amounted to 11.43 µg/mL, the LD0 worked out at 11.43 µg/mL and the LD50 worked out at 160.43 µg/mL.
For the compound `CC(=NN=C1SC(=Cc2cn(-c3ccccc3)nc2-c2ccc(Cl)cc2)C(=O)N1c1ccc(Cl)cc1)c1cc2ccccc2o1` [Compound 5e, 2-[1-(Benzofuran-2-yl)ethylidenehydrazono]-5-{[3-(4-chlorophenyl)-1-phenyl-1H-pyrazol-4-yl]methylene}-3-(4-chlorophenyl)thiazolidin-4-one], the hemolysis at 30 min, 12.5 µg/ml in the series “In vitro hemolytic assay” stood at 3.82%. Besides, in series [1], the “(LD0) PBMCs” value came to 4.26 µg/mL, the LD0 stood at 4.26 µg/mL and the LD50 is 117.12 µg/mL.
Compound `COc1ccc(-c2nn(-c3ccccc3)cc2C=C2SC(=NN=C(C)c3cc4ccccc4o3)N(c3ccc(Cl)cc3)C2=O)cc1` [Compound 5f, 2-[1-(Benzofuran-2-yl)ethylidenehydrazono]-5-{[3-(4-methoxyphenyl)-1-phenyl-1H-pyrazol-4-yl]methylene}-3-(4-chlorophenyl)thiazolidin-4-one] had a hemolysis at 30 min, 12.5 µg/ml in the series “In vitro hemolytic assay” of 4.59%. Besides, in series [1], the “(LD0) PBMCs” value worked out at 5.83 µg/mL, the LD0 came to 5.83 µg/mL, the LD50 turned out to be 259.71 µg/mL and the “LD50 (PBMCs)” value came out at 259.71 µg/mL.
For the compound `COc1ccc(N2C(=O)C(=Cc3cn(-c4ccccc4)nc3-c3ccccc3)SC2=NN=C(C)c2cc3ccccc3o2)cc1` [Compound 5g, 2-[1-(Benzofuran-2-yl)ethylidenehydrazono]-5-[(1,3-Diphenyl-1H-pyrazol-4-yl)methylene]-3-(4-methoxyphenyl)thiazolidin-4-one], the hemolysis at 30 min, 12.5 µg/ml in “In vitro hemolytic assay” is 2.03%. In series [1], the “(LD0) PBMCs” value turned out to be 8.88 µg/mL, the LD0 was determined as 8.88 µg/mL and the LD50 stood at 39.01 µg/mL.
Turning to `COc1ccc(-c2nn(-c3ccccc3)cc2C=C2SC(=NN=C(C)c3cc4ccccc4o3)N(c3ccc(OC)cc3)C2=O)cc1` [Compound 5i, 2-[1-(Benzofuran-2-yl)ethylidenehydrazono]-5-{[3-(4-methoxyphenyl)-1-phenyl-1H-pyrazol-4-yl]methylene}-3-(4-methoxyphenyl)thiazolidin-4-one], the hemolysis at 30 min, 12.5 µg/ml in the series “In vitro hemolytic assay” was found to be 2.97%. In addition, in series [1], the “(LD0) PBMCs” value was determined as 7.60 µg/mL, the LD0 came to 7.60 µg/mL and the LD50 came to 25.35 µg/mL.
Turning to `CC(=NN=C1SC(=Cc2cn(-c3ccccc3)nc2-c2ccccc2)C(=O)N1C1CCCCC1)c1cc2ccccc2o1` [Compound 5j, 2-[1-(Benzofuran-2-yl)ethylidenehydrazono]-5-[(1,3-Diphenyl-1H-pyrazol-4-yl)methylene]-3-cyclohexylthiazolidin-4-one], in “In vitro hemolytic assay”, the hemolysis at 30 min, 12.5 µg/ml came to 3.01%. Further, in series [1], the “(LD0) PBMCs” value was determined as 9.90 µg/mL, the LD0 was determined as 9.90 µg/mL, the LD50 was determined as 134.00 µg/mL and the “LD50 (PBMCs)” value worked out at 134.00 µg/mL.
As for `CC(=NN=C1SC(=Cc2cn(-c3ccccc3)nc2-c2ccc(Cl)cc2)C(=O)N1C1CCCCC1)c1cc2ccccc2o1` [Compound 5k, 2-[1-(Benzofuran-2-yl)ethylidenehydrazono]-5-{[3-(4-chlorophenyl)-1-phenyl-1H-pyrazol-4-yl]methylene}-3-cyclohexylthiazolidin-4-one], the hemolysis at 30 min, 12.5 µg/ml in the series “In vitro hemolytic assay” was 4.44%. Moreover, in series [1], the “(LD0) PBMCs” value came to 33.29 µg/mL, the LD0 came to 33.29 µg/mL and the LD50 came to 319.64 µg/mL.
`COc1ccc(-c2nn(-c3ccccc3)cc2C=C2SC(=NN=C(C)c3cc4ccccc4o3)N(C3CCCCC3)C2=O)cc1` [Compound 5l, 2-[1-(Benzofuran-2-yl)ethylidenehydrazono]-5-{[3-(4-methoxyphenyl)-1-phenyl-1H-pyrazol-4-yl]methylene}-3-cyclohexylthiazolidin-4-one] returned a hemolysis at 30 min, 12.5 µg/ml in the series “In vitro hemolytic assay” of 2.89%. Further, in series [1], the “(LD0) PBMCs” value amounted to 8.33 µg/mL, the LD0 worked out at 8.33 µg/mL, the LD50 turned out to be 46.89 µg/mL and the “LD50 (PBMCs)” value came out at 46.89 µg/mL.
For the compound `CC(=NN=C1SC(=Cc2cn(-c3ccccc3)nc2-c2ccccc2)C(=O)N1c1ccc(Cl)cc1)c1nc2ccccc2[nH]1` [Compound 5p, 2-[1-(1H-Benzimidazole-2-yl)ethylidenehydrazono]-5-[(1,3-Diphenyl-1H-pyrazol-4-yl)methylene]-3-(4-chlorophenyl)thiazolidin-4-one], the hemolysis at 30 min, 12.5 µg/ml in “In vitro hemolytic assay” came to 4.62%. Moreover, in series [1], the “(LD0) PBMCs” value is 12.67 µg/mL, the LD0 was 12.67 µg/mL, the LD50 turned out to be 120.46 µg/mL and the “LD50 (PBMCs)” value was 120.46 µg/mL.
As to `CC(=NN=C1SC(=Cc2cn(-c3ccccc3)nc2-c2ccc(Cl)cc2)C(=O)N1c1ccc(Cl)cc1)c1nc2ccccc2[nH]1` [Compound 5q, 2-[1-(1H-Benzimidazole-2-yl)ethylidenehydrazono]-5-{[3-(4-chlorophenyl)-1-phenyl-1H-pyrazol-4-yl]methylene}-3-(4-chlorophenyl)thiazolidin-4-one], in “In vitro hemolytic assay”, the hemolysis at 30 min, 12.5 µg/ml is 3.49%. In addition, in series [1], the “(LD0) PBMCs” value is 190.45 µg/mL, the LD0 is 190.45 µg/mL, the LD50 worked out at 1246.96 µg/mL and the “LD50 (PBMCs)” value was 1246.96 µg/mL.
